Measured values reported in ChEMBL document CHEMBL4765340, “Novel potent antiplatelet thrombotic agent derived from biguanide for ischemic stroke” (Eur J Med Chem, 2020).

Experiments:
[1] = Inhibition of thrombin-induced platelet aggregation in mouse platelet isolated from C57BL/6J mouse treated at 200 mg/kg, ig twice a day for 7 days by lumi-aggregometer; assay type: functional; conditions: po, 168 h, time 7 day
Mus musculus = experiment: Antithrombotic activity in collagen-epinephrine induced pulmonary thromboembolism mouse model assessed as protection rate at 200 mg/kg, ig twice a day for 7 days followed by administered collagen-epinephrine relative to control; assay type: functional; conditions: time 7 day
[2] = Cmax in Sprague-Dawley rat at 200 mg/kg, po compound dissolved in DMSO measured after 2 hr by HPLC-MS/MS analysis; assay type: ADME, organism-based; set-up: route oral, time 2 hrs, dose 200 mg/kg; conditions: in vivo
[3] = Half life in Sprague-Dawley rat at 200 mg/kg, po measured by HPLC-MS/MS analysis; assay type: ADME, organism-based; conditions: in vivo
[4] = Apparent clearance during terminal phase in Sprague-Dawley rat at 200 mg/kg, po measured by HPLC-MS/MS analysis; assay type: ADME, organism-based; conditions: in vivo
[5] = AUC (0 to infinity) in Sprague-Dawley rat at 200 mg/kg, po measured by HPLC-MS/MS analysis; assay type: ADME, organism-based; set-up: time infinity, route oral, dose 200 mg/kg; conditions: in vivo

Q: With CN(C)C(=N)NC(=N)NC(=O)C1CCCCC1 as the compound, how does the inhibition in vivo at 200 mg/kg [1] read?
A: 24.1%

Q: What about the Activity (Mus musculus) of the same compound?
A: 20%

Q: With Cc1ccc(C(=O)NC(=N)NC(=N)N(C)C)cc1 as the compound, how does the inhibition in vivo at 200 mg/kg [1] read?
A: 18.3%

Q: What about the Activity (Mus musculus) of the same compound?
A: 20%

Q: What does the source list for CN(C)C(=N)NC(=N)NS(=O)(=O)C(F)(F)C(F)(F)C(F)(F)C(F)(F)F?
A: inhibition in vivo at 200 mg/kg [1]: 9.2%; Activity (Mus musculus): 20%

Q: Which inhibition in vivo at 200 mg/kg [1] does the source give for CN(C)C(=N)NC(=N)NS(=O)(=O)C(Cl)(Cl)Cl here?
A: 34.9%

Q: What about the Activity (Mus musculus) of the same compound?
A: 40%

Q: For CC(=O)NC(=N)NC(=N)N(C)C, which inhibition in vivo at 200 mg/kg [1] is on record?
A: 15.4%

Q: And the Activity (Mus musculus)?
A: 10%

Q: What does the source list for CN(C)C(=N)NC(=N)NC(=O)CCC(=O)O?
A: inhibition in vivo at 200 mg/kg [1]: 40.4%; Activity (Mus musculus): 40%

Q: Which inhibition in vivo at 200 mg/kg [1] does the source give for CN(C)C(=N)NC(=N)/N=C/c1ccc(N(C)C)cc1 here?
A: 6.2%

Q: What about the Activity (Mus musculus) of the same compound?
A: 10%

Q: Which results are given for CN(C)C(=N)NC(=N)NC(=O)C(F)(F)F?
A: inhibition in vivo at 200 mg/kg [1]: 16.5%; Activity (Mus musculus): 30%

Q: Which results are given for CN(C)C(=N)NC(=N)/N=C/c1ccc(C#N)cc1?
A: inhibition in vivo at 200 mg/kg [1]: 9.5%; Activity (Mus musculus): 10%

Q: With CN(C)C(=N)NC(=N)NS(=O)(=O)CC(F)(F)F as the compound, how does the inhibition in vivo at 200 mg/kg [1] read?
A: 29.3%

Q: And the Activity (Mus musculus)?
A: 30%

Q: Which inhibition in vivo at 200 mg/kg [1] does the source give for Cc1ccc(S(=O)(=O)NC(=N)NC(=N)N(C)C)cc1 here?
A: 16.5%

Q: What about the Activity (Mus musculus) of the same compound?
A: 30%

Q: With CN(C)C(=N)NC(=N)/N=C/c1ccc(O)cc1 as the compound, how does the inhibition in vivo at 200 mg/kg [1] read?
A: 11.5%

Q: What about the Activity (Mus musculus) of the same compound?
A: 10%

Q: For CC(C)S(=O)(=O)NC(=N)NC(=N)N(C)C, which inhibition in vivo at 200 mg/kg [1] is on record?
A: 28.2%

Q: And the Activity (Mus musculus)?
A: 40%

Q: For CN(C)C(=N)NC(=N)NS(C)(=O)=O, which inhibition in vivo at 200 mg/kg [1] is on record?
A: 47.5%

Q: What about the Activity (Mus musculus) of the same compound?
A: 50%

Q: What does the source list for CCS(=O)(=O)NC(=N)NC(=N)N(C)C?
A: inhibition in vivo at 200 mg/kg [1]: 34.3%; Activity (Mus musculus): 20%

Q: With CN(C)C(=N)NC(=N)NS(=O)(=O)CCC(F)(F)F as the compound, how does the inhibition in vivo at 200 mg/kg [1] read?
A: 24.4%

Q: And the Activity (Mus musculus)?
A: 20%

Q: Which inhibition in vivo at 200 mg/kg [1] does the source give for CN(C)C(=N)NC(=N)N [METFORMIN] here?
A: 18.5%

Q: What about the Cmax [2] of the same compound?
A: 18000 ng/mL

Q: What about the half-life [3] of the same compound?
A: 3.24 h

Q: What about the CLz/F [4] of the same compound?
A: 42.4 mL/min/kg

Q: What about the AUC(0-inf) [5] of the same compound?
A: 78700 ng·h/mL

Q: What about the Activity (Mus musculus) of the same compound?
A: 30%

Q: For CN(C)C(=N)NC(=N)NC(=O)/C=C/C(=O)O, which inhibition in vivo at 200 mg/kg [1] is on record?
A: 13.5%

Q: And the Activity (Mus musculus)?
A: 20%

Q: Which results are given for CN(C)C(=N)NC(=N)NC(=O)c1ccccc1?
A: inhibition in vivo at 200 mg/kg [1]: 14.2%; Activity (Mus musculus): 20%

Q: For CN(C)C(=N)NC(=N)NS(=O)(=O)C(F)F, which inhibition in vivo at 200 mg/kg [1] is on record?
A: 35.5%

Q: And the Activity (Mus musculus)?
A: 30%

Q: For CN(C)C(=N)NC(=N)NCc1ccccc1, which inhibition in vivo at 200 mg/kg [1] is on record?
A: 12.1%

Q: What about the Activity (Mus musculus) of the same compound?
A: 20%

Q: What does the source list for CN(C)C(=N)NC(=N)/N=C/c1cc(O)c(O)c(O)c1?
A: inhibition in vivo at 200 mg/kg [1]: 7.1%; Activity (Mus musculus): 0%

Q: With CN(C)C(=N)NC(=N)NS(=O)(=O)C1CCCCC1 as the compound, how does the inhibition in vivo at 200 mg/kg [1] read?
A: 19.5%

Q: And the Activity (Mus musculus)?
A: 30%

Q: With CC(=O)Oc1ccccc1C(=O)O [ASPIRIN] as the compound, how does the inhibition in vivo at 200 mg/kg [1] read?
A: 38.8%

Q: And the Activity (Mus musculus)?
A: 50%
